Source: PubChem BioAssay AID330 (DTP/NCI, 2004)
Several values for one entry are separate records, joined by “and”; a condition that tells them apart may be missing. Equal entries are not always repeated. Inconclusive results and toxic doses are left out. The calls were made as follows: active = survival T/C of 150% or more; inactive = T/C below 125% in these data.

System: P388 leukemia ip, CD2F1 mice, survival T/C
Assay: NCI In Vivo Anticancer Drug Screen. Data for tumor model P388 Leukemia (intraperitoneal) in CD2F1 (CDF1) mice
Conditions: endpoint: median survival time, higher = longer survival
Summary of the method: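 Mice carrying the transplanted tumor received test compound or vehicle. Survival was recorded in each group, and the value is the treated-group measurement divided by that of the vehicle-treated control group.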

[1] = dose: 50.0 mg/kg/injection, schedule: Q01DX005 (ip), vehicle: Klucel (hydroxypropylcellulose) (HPC)
[2] = dose: 60.0 mg/kg/injection, schedule: Q01DX005 (ip), vehicle: saline
[3] = dose: 120.0 mg/kg/injection, schedule: Q01DX005 (ip), vehicle: saline
[4] = dose: 100.0 mg/kg/injection, schedule: Q01DX005 (ip), vehicle: Klucel (hydroxypropylcellulose) (HPC)
[5] = dose: 200.0 mg/kg/injection, schedule: Q01DX005 (ip), vehicle: Klucel (hydroxypropylcellulose) (HPC)
[6] = dose: 50.0 mg/kg/injection, schedule: Q01DX009 (ip), vehicle: Klucel (hydroxypropylcellulose) (HPC)
[7] = dose: 100.0 mg/kg/injection, schedule: Q01DX009 (ip), vehicle: Klucel (hydroxypropylcellulose) (HPC)
[8] = dose: 200.0 mg/kg/injection, schedule: Q01DX009 (ip), vehicle: Klucel (hydroxypropylcellulose) (HPC)
[9] = dose: 60.0 mg/kg/injection, schedule: Q01DX005 (ip), vehicle: saline with Tween-80
[10] = dose: 120.0 mg/kg/injection, schedule: Q01DX005 (ip), vehicle: saline with Tween-80
[11] = dose: 240.0 mg/kg/injection, schedule: Q01DX005 (ip), vehicle: saline with Tween-80

Measured: T/C

Cc1nc2[nH]cc(-c3ccccc3)c2c(=N)n1-c1ccccc1
inactive: dose: 12.5 mg/kg/injection, schedule: Q01DX005 (ip), vehicle: Klucel (hydroxypropylcellulose) (HPC) 102 % of control | dose: 25.0 mg/kg/injection, schedule: Q01DX005 (ip), vehicle: Klucel (hydroxypropylcellulose) (HPC) 106 % of control | [1] 100 % of control and 104 % of control

NC(=O)C(CO)NC(=O)c1cccnc1 (configuration not stated)
inactive: [2] 100 % of control | [3] 100 % of control | dose: 240.0 mg/kg/injection, schedule: Q01DX005 (ip), vehicle: saline 99 % of control

C=C1C(=O)O[C@H]2CC3=CCC[C@H](C)[C@@]3(C)C[C@@H]12
inactive: dose: 2.25 mg/kg/injection, schedule: Q01DX005 (ip), vehicle: Klucel (hydroxypropylcellulose) (HPC) 100 % of control | dose: 4.5 mg/kg/injection, schedule: Q01DX005 (ip), vehicle: Klucel (hydroxypropylcellulose) (HPC) 96 % of control | dose: 9.0 mg/kg/injection, schedule: Q01DX005 (ip), vehicle: Klucel (hydroxypropylcellulose) (HPC) 99 % of control | dose: 18.0 mg/kg/injection, schedule: Q01DX005 (ip), vehicle: Klucel (hydroxypropylcellulose) (HPC) 101 % of control | dose: 36.0 mg/kg/injection, schedule: Q01DX005 (ip), vehicle: Klucel (hydroxypropylcellulose) (HPC) 99 % of control

CC(NC(=O)OCc1ccccc1)C(=O)N1CCCC1C(=O)O (configuration not stated)
inactive: [1] 91 % of control | [4] 90 % of control | [5] 98 % of control

C=CC(c1ccccc1)c1cc2c(cc1OCCC)OCO2 (configuration not stated)
inactive: [1] 98 % of control | [4] 96 % of control | [5] 105 % of control

[C-]#[N+]C1CCCCC1.[C-]#[N+]C1CCCCC1.[Ni].[S-]c1ccccc1.[S-]c1ccccc1
inactive: dose: 25.0 mg/kg/injection, schedule: Q04DX003 (ip), vehicle: saline with Tween-80 89 % of control | dose: 50.0 mg/kg/injection, schedule: Q04DX003 (ip), vehicle: saline with Tween-80 91 % of control | dose: 100.0 mg/kg/injection, schedule: Q04DX003 (ip), vehicle: saline with Tween-80 89 % of control and 93 % of control

C=C(CC(O)(C(F)(F)F)C(F)(F)F)CC(O)(C(F)(F)F)C(F)(F)F
inactive: dose: 3.13 mg/kg/injection, schedule: Q01DX005 (ip), vehicle: saline with Tween-80 102 % of control | dose: 6.25 mg/kg/injection, schedule: Q01DX005 (ip), vehicle: saline with Tween-80 104 % of control | dose: 12.5 mg/kg/injection, schedule: Q01DX001 (ip), vehicle: saline with Tween-80 99 % of control | dose: 12.5 mg/kg/injection, schedule: Q01DX005 (ip), vehicle: saline with Tween-80 107 % of control | dose: 25.0 mg/kg/injection, schedule: Q01DX001 (ip), vehicle: saline with Tween-80 99 % of control

O=C1NC(c2ccccc2)N=C2Oc3ccccc3C=C12 (configuration not stated)
inactive: dose: 3.12 mg/kg/injection, schedule: Q01DX009 (ip), vehicle: saline 97 % of control | dose: 6.25 mg/kg/injection, schedule: Q01DX009 (ip), vehicle: saline 97 % of control | dose: 12.5 mg/kg/injection, schedule: Q01DX009 (ip), vehicle: saline with Tween-80 115 % of control | dose: 12.5 mg/kg/injection, schedule: Q01DX009 (ip), vehicle: saline 106 % of control

Cc1c(Cl)cccc1N=Cc1cccs1
inactive: [6] 105 % of control | [7] 105 % of control | [8] 105 % of control

CCC(O)(C(=O)O)c1ccccc1 (configuration not stated)
inactive: dose: 25.0 mg/kg/injection, schedule: Q04DX003 (ip), vehicle: saline 105 % of control | dose: 50.0 mg/kg/injection, schedule: Q04DX003 (ip), vehicle: saline 97 % of control | dose: 100.0 mg/kg/injection, schedule: Q04DX003 (ip), vehicle: saline 94 % of control | dose: 200.0 mg/kg/injection, schedule: Q04DX003 (ip), vehicle: saline 100 % of control

O=C(CON1C(=O)CCC1=O)c1ccccc1
inactive: dose: 50.0 mg/kg/injection, schedule: Q01DX009 (ip), vehicle: saline with Tween-80 106 % of control | dose: 100.0 mg/kg/injection, schedule: Q01DX009 (ip), vehicle: saline with Tween-80 112 % of control | dose: 200.0 mg/kg/injection, schedule: Q01DX009 (ip), vehicle: saline with Tween-80 112 % of control

CC(O)C(O)C(O)C(C=O)OC1OC(C)C(O)C(O)C1O (configuration not stated)
inactive: dose: 2.5 mg/kg/injection, schedule: Q01DX005 (ip), vehicle: saline + alcohol 99 % of control | dose: 5.0 mg/kg/injection, schedule: Q01DX005 (ip), vehicle: saline + alcohol 96 % of control | dose: 10.0 mg/kg/injection, schedule: Q01DX005 (ip), vehicle: saline + alcohol 110 % of control | dose: 20.0 mg/kg/injection, schedule: Q01DX005 (ip), vehicle: saline + alcohol 91 % of control

NC(=S)CCCCCC(N)=S
inactive: dose: 50.0 mg/kg/injection, schedule: Q01DX005 (ip), vehicle: saline with Tween-80 103 % of control | dose: 100.0 mg/kg/injection, schedule: Q01DX005 (ip), vehicle: saline with Tween-80 111 % of control | dose: 200.0 mg/kg/injection, schedule: Q01DX005 (ip), vehicle: saline with Tween-80 103 % of control

COC(=O)c1nnn(-c2c(C)cccc2C(C)C)c1C(=O)c1ccccc1
inactive: [9] 100 % of control | [10] 109 % of control | [11] 94 % of control

N#CC1CCCC(CCc2ccccc2)(c2ccccc2)C1=N (configuration not stated)
inactive: dose: 50.0 mg/kg/injection, schedule: Q01DX001 (ip), vehicle: Klucel (hydroxypropylcellulose) (HPC) 100 % of control | dose: 100.0 mg/kg/injection, schedule: Q01DX001 (ip), vehicle: Klucel (hydroxypropylcellulose) (HPC) 99 % of control and 101 % of control | dose: 200.0 mg/kg/injection, schedule: Q01DX001 (ip), vehicle: Klucel (hydroxypropylcellulose) (HPC) 91 % of control | dose: 400.0 mg/kg/injection, schedule: Q01DX001 (ip), vehicle: Klucel (hydroxypropylcellulose) (HPC) 102 % of control and 92 % of control

O=c1c(CO)c(-c2ccccc2)oc2ccccc12
inactive: dose: 100.0 mg/kg/injection, schedule: Q04DX002 (ip), vehicle: Klucel (hydroxypropylcellulose) (HPC) 115 % of control | dose: 200.0 mg/kg/injection, schedule: Q04DX002 (ip), vehicle: Klucel (hydroxypropylcellulose) (HPC) 98 % of control | dose: 400.0 mg/kg/injection, schedule: Q04DX002 (ip), vehicle: Klucel (hydroxypropylcellulose) (HPC) 101 % of control

CSC(=O)N(C)C(=O)Nc1cccc([N+](=O)[O-])c1
inactive: dose: 100.0 mg/kg/injection, schedule: Q04DX003 (ip), vehicle: Klucel (hydroxypropylcellulose) (HPC) 100 % of control | dose: 200.0 mg/kg/injection, schedule: Q04DX003 (ip), vehicle: Klucel (hydroxypropylcellulose) (HPC) 99 % of control | dose: 400.0 mg/kg/injection, schedule: Q04DX003 (ip), vehicle: Klucel (hydroxypropylcellulose) (HPC) 90 % of control

CCn1cnc(=O)[nH]c1=O
inactive: [1] 102 % of control | [4] 96 % of control | [5] 97 % of control

O=C(N/N=C/c1ccco1)c1cccnc1
inactive: [9] 92 % of control | [10] 92 % of control | [11] 101 % of control

COCC1(C)CCCC2(C)C1CCC13CCC(O)CC12O3 (configuration not stated)
inactive: dose: 100.0 mg/kg/injection, schedule: Q01DX001 (ip), vehicle: saline 105 % of control | dose: 200.0 mg/kg/injection, schedule: Q01DX001 (ip), vehicle: saline 105 % of control | dose: 400.0 mg/kg/injection, schedule: Q01DX001 (ip), vehicle: saline 103 % of control

CC(C)Sc1nc2ccc(NC(=O)/C=C/C(=O)O)cc2s1
inactive: [6] 100 % of control | [7] 104 % of control | [8] 101 % of control

CN(C)CCCNc1c2ccccc2nc2c1c(=O)n(C)c(=O)n2C
inactive: [2] 101 % of control | [3] 107 % of control

Nc1nc(N)c2nc3c(ccc4ccccc43)nc2n1
inactive: [9] 94 % of control | [10] 96 % of control | [11] 104 % of control

CCOP(=S)(N/N=C/c1ccc(C)s1)OCC
inactive: [1] 110 % of control | [4] 112 % of control | [5] 117 % of control

NC1[N-]C(C2CCCC[N-]2)CC2CCCCC21.NC1[N-]C(C2CCCC[N-]2)CC2CCCCC21.O=[N+]([O-])O.[Cu+2] (configuration not stated)
inactive: dose: 6.25 mg/kg/injection, schedule: Q04DX002 (ip), vehicle: suspension in saline 108 % of control | dose: 12.5 mg/kg/injection, schedule: Q04DX002 (ip), vehicle: suspension in saline 109 % of control

Cc1cccc(N=Nc2ccc(N=Nc3c(O)ccc4ccccc34)cc2C)c1
inactive: [6] 97 % of control | [7] 100 % of control | [8] 100 % of control

CC1=CN2C3=NCCN3C3=[N+](C)CCN3C2C=C1 (configuration not stated)
inactive: dose: 12.5 mg/kg/injection, schedule: Q01DX005 (ip), vehicle: saline 104 % of control | dose: 25.0 mg/kg/injection, schedule: Q01DX005 (ip), vehicle: saline 101 % of control | dose: 50.0 mg/kg/injection, schedule: Q01DX005 (ip), vehicle: saline 100 % of control and 112 % of control
